The experiment addresses T1, α4β1 integrin (Homo sapiens, UniProt P05556+P13612).
T1 construct: endogenous in cells; host or cells: Ramos cells
The experiment is described as follows: Adhesion of calcein-labeled Ramos cells to CS1 (fibronectin) peptide conjugated ovalbumin. The class given is cell-based. Conditions: Ramos cell adhesion to CS1 conjugated ovalbumin. The method in brief: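 Plates bearing CS1 fibronectin peptide coupled to ovalbumin (0.5 μg/ml coat, 3% BSA block) received calcein-labelled Ramos cells plus compound (100 μM stated) for 30 min at 37 °C. Buffer was TBS pH 7.5 with 1 mM Mg2+, Ca2+, Mn2+; bound cells quantified by fluorescence after lysis; […].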

[1] abbreviates: Table 5, dose required to give 50% inhibition.

For 55 compounds, IC50 results are on record in patent US6972296B2, “Carboxylic acid derivatives that inhibit the binding of integrins to their receptors” (Encysive Pharmaceuticals Inc., priority 1999, dated 2005).

T1 sequence (P13612 34-1032): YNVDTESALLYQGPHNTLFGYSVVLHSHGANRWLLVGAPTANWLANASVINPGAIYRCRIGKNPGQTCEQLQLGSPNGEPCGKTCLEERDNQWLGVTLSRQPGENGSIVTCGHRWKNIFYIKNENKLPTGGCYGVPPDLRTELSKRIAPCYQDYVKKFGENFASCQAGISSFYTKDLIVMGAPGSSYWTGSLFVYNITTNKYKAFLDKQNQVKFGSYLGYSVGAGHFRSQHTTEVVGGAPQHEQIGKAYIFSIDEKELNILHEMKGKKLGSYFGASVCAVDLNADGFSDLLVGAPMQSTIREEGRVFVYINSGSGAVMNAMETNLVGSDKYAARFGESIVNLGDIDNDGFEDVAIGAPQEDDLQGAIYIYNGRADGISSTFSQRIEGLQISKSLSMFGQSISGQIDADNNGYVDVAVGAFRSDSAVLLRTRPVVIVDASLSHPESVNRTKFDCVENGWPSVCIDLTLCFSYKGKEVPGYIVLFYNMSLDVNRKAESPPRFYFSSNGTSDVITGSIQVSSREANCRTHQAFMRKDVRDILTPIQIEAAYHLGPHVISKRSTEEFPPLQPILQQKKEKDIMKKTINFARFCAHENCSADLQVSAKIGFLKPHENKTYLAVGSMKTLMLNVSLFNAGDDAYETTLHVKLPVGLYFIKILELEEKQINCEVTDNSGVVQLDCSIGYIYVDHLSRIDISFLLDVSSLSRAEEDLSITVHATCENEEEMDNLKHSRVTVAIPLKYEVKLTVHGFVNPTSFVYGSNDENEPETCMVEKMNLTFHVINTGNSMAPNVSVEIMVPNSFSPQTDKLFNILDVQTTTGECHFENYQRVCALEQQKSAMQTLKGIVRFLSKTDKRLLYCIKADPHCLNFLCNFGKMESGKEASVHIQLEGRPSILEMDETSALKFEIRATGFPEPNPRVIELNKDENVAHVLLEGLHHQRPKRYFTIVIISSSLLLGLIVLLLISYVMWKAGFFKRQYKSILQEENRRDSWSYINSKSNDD
T1 sequence (P05556 21-798): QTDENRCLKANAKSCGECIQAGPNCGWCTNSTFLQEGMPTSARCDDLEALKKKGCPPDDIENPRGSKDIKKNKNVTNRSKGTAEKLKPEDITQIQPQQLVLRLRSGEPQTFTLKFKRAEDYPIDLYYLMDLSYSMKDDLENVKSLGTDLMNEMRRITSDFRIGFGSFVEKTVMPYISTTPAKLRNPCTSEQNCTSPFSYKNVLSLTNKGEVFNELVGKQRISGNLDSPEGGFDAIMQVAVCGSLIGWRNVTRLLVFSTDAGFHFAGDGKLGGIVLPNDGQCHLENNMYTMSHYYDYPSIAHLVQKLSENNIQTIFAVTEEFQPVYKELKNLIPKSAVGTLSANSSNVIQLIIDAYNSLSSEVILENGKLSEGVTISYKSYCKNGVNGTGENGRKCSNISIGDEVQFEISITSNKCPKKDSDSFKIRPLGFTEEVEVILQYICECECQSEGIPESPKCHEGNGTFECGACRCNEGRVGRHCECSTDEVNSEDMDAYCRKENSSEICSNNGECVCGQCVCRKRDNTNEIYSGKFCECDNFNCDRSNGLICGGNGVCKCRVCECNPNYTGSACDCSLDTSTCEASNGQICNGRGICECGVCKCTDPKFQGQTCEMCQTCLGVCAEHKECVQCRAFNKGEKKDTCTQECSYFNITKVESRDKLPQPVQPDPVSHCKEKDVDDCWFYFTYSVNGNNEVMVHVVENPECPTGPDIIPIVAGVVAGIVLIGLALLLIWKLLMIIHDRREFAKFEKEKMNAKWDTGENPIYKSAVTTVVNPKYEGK

Regarding `Cc1cc(C(CC(=O)O)NC(=O)Nc2c(O)ccn(Cc3ccccc3Cl)c2=O)oc1C` (stereo not shown), the IC50 (Table 6, 30 minutes at 37° C.) is 115 nM.
With `O=C(O)CC(NC(=O)Nc1c(O)ccn(Cc2ccccc2Cl)c1=O)c1cccc2ccccc12` (stereo not shown), the IC50 under setting [1] is 200 nM.
Regarding `COc1ccc(C(CC(=O)O)NC(=O)Nc2c(O)ccn(Cc3ccccc3Cl)c2=O)c2ccccc12` (stereo not shown), the IC50 (Table 6, 30 minutes at 37° C.) was 160 nM.
Take `O=C(O)CC(NC(=O)Nc1c(O)ccn(Cc2ccccc2Cl)c1=O)c1ccc2ccccc2n1` (stereo not shown): the IC50 (Table 6, 30 minutes at 37° C.) is 105 nM.
As to `Cc1cn(Cc2ccccc2Cl)c(=O)c(NC(=O)NC(CC(=O)O)c2ccc3ccccc3c2)c1O` (stereo not shown), under setting [1], the IC50 is 30 nM.
Consider `Cc1ccc([C@@H](CC(=O)O)NC(=O)Nc2c(O)ccn(Cc3ccccc3Cl)c2=O)cc1`, for which, under setting [1], the IC50 is 300 nM.
As for `O=C(O)C[C@@H](Cc1ccccn1)NC(=O)Nc1c(O)ccn(Cc2ccccc2Cl)c1=O`, the IC50 under setting [1] is 225 nM.
The same measure, in the same setting: under `C[C@H](CC(=O)O)NC(=O)Nc1c(O)ccn(Cc2ccccc2Cl)c1=O` stands 190 nM.
As to `O=C(O)C[C@@H](CCc1ccccc1)NC(=O)Nc1c(O)ccn(Cc2ccccc2Cl)c1=O`, under “Table 6, 30 minutes at 37° C.”, the IC50 is 115 nM.
Consider `O=C(O)C[C@H](NC(=O)Nc1c(O)ccn(Cc2ccccc2Cl)c1=O)c1cc(C(F)(F)F)cc(C(F)(F)F)c1`, for which the IC50 under setting [1] was 220 nM.
On the same count and under the same terms, the same measure for `CCOc1ccc([C@H](CC(=O)O)NC(=O)Nc2c(O)c(C)c(C)n(Cc3c(C)cccc3Cl)c2=O)cc1OCC`: 4 nM; for `CSc1ccc(Cl)c(Cn2ccc(O)c(NC(=O)N[C@@H](CC(=O)O)c3ccc(C)cc3)c2=O)c1`: 15 nM; for `Cc1ccc([C@H](CC(=O)O)NC(=O)Nc2cccn(Cc3cc(O)ccc3Cl)c2=O)cc1`: 250 nM.
Take `COc1ccc(Cl)c(Cn2cccc(NC(=O)N[C@@H](CC(=O)O)c3ccc(C)cc3)c2=O)c1`: the IC50 under setting [1] was 90 nM.
Turning to `CCOc1cccc(Cl)c1Cn1ccc(O)c(NC(=O)N[C@@H](CC(=O)O)c2ccc(C)cc2)c1=O`, the IC50 (Table 6, 30 minutes at 37° C.) was 7 nM.
For `Cc1ccc([C@H](CC(=O)O)NC(=O)Nc2cccn(Cc3c(O)cccc3Cl)c2=O)cc1`, the IC50 under setting [1] is 100 nM.
Consider `CCCc1cn(Cc2c(Cl)cccc2OC)c(=O)c(NC(=O)N[C@@H](CC(=O)O)c2cccc(OCC)c2)c1O`, for which the IC50 (Table 6, 30 minutes at 37° C.) is 7 nM.
Still for that read-out and setting: the same measure for `COc1cccc(Cl)c1Cn1cc(C)c(O)c(NC(=O)N[C@@H](CC(=O)O)c2ccc(C)cc2)c1=O`: 5 nM.
Still for that read-out and setting: the same measure for `CCCc1cn(Cc2c(Cl)cccc2OC)c(=O)c(NC(=O)N[C@@H](CC(=O)O)c2ccc(C)cc2)c1O`: 15 nM; for `CCOc1cccc([C@H](CC(=O)O)NC(=O)Nc2c(O)c(C)cn(Cc3c(C)cccc3Cl)c2=O)c1`: 4 nM; for `COc1cc([C@H](CC(=O)O)NC(=O)Nc2c(O)c(C)cn(Cc3c(C)cccc3Cl)c2=O)ccc1C`: 25 nM.
Turning to `Cc1ccc([C@H](CC(=O)O)NC(=O)Nc2c(O)c(C)c(C)n(Cc3c(C)cccc3Cl)c2=O)cc1`, the IC50 under setting [1] is 30 nM.
Same read-out and setting: under `COc1cc([C@H](CC(=O)O)NC(=O)Nc2c(O)c(C)c(C)n(Cc3c(C)cccc3Cl)c2=O)ccc1C` stands 25 nM.
Take `Cc1ccc([C@H](CC(=O)O)NC(=O)Nc2c(O)c(C)cn(Cc3c(C)cccc3Cl)c2=O)cc1C`: where the note is “Table 6, 30 minutes at 37° C.”, the IC50 is 45 nM.
As for `CCOc1cccc([C@H](CC(=O)O)NC(=O)Nc2c(O)c(C)c(C)n(Cc3c(C)cccc3Cl)c2=O)c1`, under setting [1], the IC50 is 15 nM.
Consider `CCOc1cc(OCC)cc([C@H](CC(=O)O)NC(=O)Nc2c(O)ccn(Cc3ccccc3Cl)c2=O)c1`, for which the IC50 (Table 6, 30 minutes at 37° C.) is 7 nM.
As to `COc1cc(C)c([C@H](CC(=O)O)NC(=O)Nc2c(O)ccn(Cc3ccccc3Cl)c2=O)cc1C`, the IC50 under setting [1] was 80 nM.
Regarding `O=C(O)C[C@H](NC(=O)Nc1c(O)ccn(Cc2ccccc2Cl)c1=O)c1ccccn1`, the 50% inhibitory concentration (IC50) (Table 6, 30 minutes at 37° C.) was 150 nM.
Regarding `Cc1ccc([C@H](CC(=O)O)NC(=O)Nc2c(O)c3ccccc3n(Cc3ccccc3Cl)c2=O)cc1C`, the half-maximal inhibitory concentration (IC50) (Table 6, 30 minutes at 37° C.) is 25 nM.
Same read-out and setting: under `CCOc1ccc([C@H](CC(=O)O)NC(=O)Nc2c(O)c3ccccc3n(Cc3ccccc3Cl)c2=O)cc1OCC` stands 4 nM.
For `CCCCOc1ccc([C@H](CC(=O)O)NC(=O)Nc2c(O)ccn(Cc3ccccc3Cl)c2=O)cc1OCCCC`, the IC50 under setting [1] was 25 nM.
`COc1cc([C@H](CC(=O)O)NC(=O)Nc2c(O)c3ccccc3n(Cc3ccccc3Cl)c2=O)ccc1C`: the IC50 (Table 6, 30 minutes at 37° C.) was 14 nM.
With `O=C(O)C[C@H](NC(=O)Nc1c(O)ccn(Cc2ccccc2Cl)c1=O)c1ccc(OC(F)F)cc1`, the IC50 (Table 6, 30 minutes at 37° C.) is 30 nM.
In the case of `CCc1cccc([C@H](CC(=O)O)NC(=O)Nc2c(O)ccn(Cc3ccccc3Cl)c2=O)c1`, the half-inhibitory concentration (IC50) under setting [1] was 15 nM.
For `COc1ccc([C@H](CC(=O)O)NC(=O)Nc2c(O)ccn(Cc3ccccc3Cl)c2=O)cc1F`, under setting [1], the IC50 was 15 nM.
As to `Cc1ccc(C[C@@H](CC(=O)O)NC(=O)Nc2c(O)ccn(Cc3ccccc3Cl)c2=O)cc1`, the half-maximal inhibitory concentration (IC50) under setting [1] was 30000 nM.
In the case of `CCOc1cccc([C@H](CC(=O)O)NC(=O)Nc2c(O)c3ccccc3n(Cc3ccccc3Cl)c2=O)c1`, the IC50 (Table 6, 30 minutes at 37° C.) was 12 nM.
With `Cc1ccc([C@H](CC(=O)O)NC(=O)Nc2c(O)c3c(n(Cc4ccccc4Cl)c2=O)CCC3)cc1C`, the half-maximal inhibitory concentration (IC50) (Table 6, 30 minutes at 37° C.) is 18 nM.
As to `COc1cc([C@H](CC(=O)O)NC(=O)Nc2c(O)c(C)cn(Cc3ccccc3Cl)c2=O)ccc1C`, the IC50 under setting [1] is 20 nM.
Same read-out and setting: under `COc1cc([C@H](CC(=O)O)NC(=O)Nc2c(O)c(C)c(C)n(Cc3ccccc3Cl)c2=O)ccc1C` stands 15 nM.
For the compound `Cc1ccc([C@H](CC(=O)O)NC(=O)Nc2c(O)c(C)c(C)n(Cc3ccccc3Cl)c2=O)cc1C`, under “Table 6, 30 minutes at 37° C.”, the IC50 was 40 nM.
On to `CCOc1ccc([C@H](CC(=O)O)NC(=O)Nc2c(O)c(C3CC3)cn(Cc3ccccc3Cl)c2=O)cc1OCC`, for which the IC50 (Table 6, 30 minutes at 37° C.) was 6 nM.
As to `CCOc1cccc([C@H](CC(=O)O)NC(=O)Nc2c(O)c(C3CC3)cn(Cc3ccccc3Cl)c2=O)c1`, under “Table 6, 30 minutes at 37° C.”, the IC50 is 14 nM.
Still for that read-out and setting: the same measure for `COc1cccc(F)c1Cn1cc(C)c(O)c(NC(=O)N[C@@H](CC(=O)O)c2ccc(C)cc2)c1=O`: 10 nM.
Regarding `Cc1ccc([C@H](CC(=O)O)NC(=O)Nc2c(O)ccn(Cc3ccc(Cl)cc3Cl)c2=O)cc1`, under setting [1], the IC50 was 60 nM.
Still for that read-out and setting: the same measure for `Cc1ccc([C@H](CC(=O)O)NC(=O)Nc2c(O)ccn(Cc3cc(F)ccc3F)c2=O)cc1`: 15 nM.
In the case of `Cc1ccc([C@H](CC(=O)O)NC(=O)Nc2c(O)ccn(Cc3c(C)cccc3C)c2=O)cc1`, the IC50 under setting [1] is 35 nM.
As for `Cc1ccc([C@H](CC(=O)O)NC(=O)Nc2cccn(Cc3cccc(C(C)(C)C)c3O)c2=O)cc1`, the IC50 under setting [1] was 4000 nM.
Take `COc1c(Cn2cccc(NC(=O)N[C@@H](CC(=O)O)c3ccc(C)cc3)c2=O)cccc1C(C)(C)C`: the half-maximal inhibitory concentration (IC50) under setting [1] is 2500 nM.
Take `CCCc1cn(Cc2ccc(Cl)cc2)c(=O)c(NC(=O)N[C@@H](CC(=O)O)c2ccc(OCC)c(OCC)c2)c1O`: under setting [1], the IC50 was 15 nM.
With `CCCc1cn(Cc2ccc(Cl)cc2)c(=O)c(NC(=O)N[C@@H](CC(=O)O)c2cccc(OCC)c2)c1O`, under setting [1], the half-inhibitory concentration (IC50) was 30 nM.
`Cc1ccc([C@H](CC(=O)O)NC(=O)Nc2cccn(Cc3ccc(F)cc3)c2=O)cc1`: the IC50 under setting [1] was 2000 nM.
With `Cc1ccc([C@H](CC(=O)O)NC(=O)Nc2c(O)c(C)cn(Cc3cc(Cl)ccc3F)c2=O)cc1`, under “Table 6, 30 minutes at 37° C.”, the IC50 is 15 nM.
As to `Cc1ccc([C@H](CC(=O)O)NC(=O)Nc2c(O)ccn(Cc3ccccc3S(C)(=O)=O)c2=O)cc1`, the IC50 under setting [1] was 35 nM.
As to `COc1ccccc1Cn1ccc(O)c(NC(=O)N[C@@H](CC(=O)O)c2ccc(C)cc2)c1=O`, under setting [1], the IC50 is 80 nM.

As a reminder, the IC50 is the concentration at which inhibition is half-maximal.
